We go through 18 compounds from patent publication US20220296604A1, “INDOLE COMPOUNDS AS MODULATORS OF RAGE ACTIVITY AND USES THEREOF” (NEW YORK UNIVERSITY, priority 2019, published 2022).

Broadly, the Kd is the constant that tells how readily two partners part at equilibrium. Higher therefore signals a looser complex.

For the assay, the target named is T1, RAGE tail (Homo sapiens, UniProt Q15109).
T1 construct: The cytoplasmic domain of RAGE, C terminal RAGE or ctRAGE (RAGE tail) is critical for RAGE-dependent signal transduction
T1 sequence (Q15109 364-404 limits assumed): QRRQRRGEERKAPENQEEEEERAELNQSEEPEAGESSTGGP
The assay can be described thus: RAGE tail fluorescence titration (fluorescence quenching), Kd determination. The conditions noted are these: compound titrated into 100 nM solution of RAGE tail, NB = binding not detected. How it is done:
Binding affinities of small molecules for either CT-RAGE or FH1 are determined by performing fluorescence titrations to generate binding isotherms and standard SPR experiments. […]
Compound D-IIIa was titrated into 100 nM solution of RAGE tail. Fluorescence quenching was used to determine binding. R^2 quality factor of the fitting was 0.94 (FIG. 1).
Compound D-IIIb was titrated into 100 nM solution of RAGE tail. Fluorescence quenching was used to determine binding. R^2 quality factor of the fitting was 0.97 (FIG. 2).
Compound D-IIIc was titrated into 100 nM solution of RAGE tail. Fluorescence quenching was used to determine binding. R^2 quality factor of the fitting was 0.98 (FIG. 3).
Compound D-IIId was titrated into 100 nM solution of RAGE tail. Fluorescence quenching was used to determine binding. R^2 quality factor of the fitting was 0.99 (FIG. 4).
Compound D-IIIe was titrated into 100 nM solution of RAGE tail. Fluorescence quenching was used to determine binding. R^2 quality factor of the fitting was 0.98 (FIG. 5).
Compound D-IIIi was titrated into 100 nM solution of RAGE tail. Fluorescence quenching was used to determine binding. R^2 quality factor of the fitting was 0.90 (FIG. 6).
Compound D-IIIk was titrated into 100 nM solution of RAGE tail. Fluorescence quenching was used to determine binding. R^2 quality factor of the fitting was 0.89 (FIG. 7).
Compound D-IIIq was titrated into 100 nM solution of RAGE tail. Fluorescence quenching was used to determine binding. R^2 quality factor of the fitting was 0.82 (FIG. 8).
Compound D-IIIv was titrated into 100 nM solution of RAGE tail. Fluorescence quenching was used to determine binding. R^2 quality factor of the fitting was 0.93 (FIG. 9).
Compound D-IIIw was titrated into 100 nM solution of RAGE tail. Fluorescence quenching was used to determine binding. R^2 quality factor of the fitting was 0.94 (FIG. 10).
Compound D-IVa was titrated into 100 nM solution of RAGE tail. Fluorescence quenching was used to determine binding. R^2 quality factor of the fitting was 0.94 (FIG. 11).
Compound D-IVb was titrated into 100 nM solution of RAGE tail. Fluorescence quenching was used to determine binding. R^2 quality factor of the fitting was 0.93 (FIG. 12).
Compound D-IVc was titrated into 100 nM solution of RAGE tail. Fluorescence quenching was used to determine binding. R^2 quality factor of the fitting was 0.92 (FIG. 13).
Compound D-IVd was titrated into 100 nM solution of RAGE tail. Fluorescence quenching was used to determine binding. R^2 quality factor of the fitting was 0.94 (FIG. 14).
Compound D-IVe was titrated into 100 nM solution of RAGE tail. Fluorescence quenching was used to determine binding. R^2 quality factor of the fitting was 0.93 (FIG. 15).
Compound D-IVf was titrated into 100 nM solution of RAGE tail. Fluorescence quenching was used to determine binding. R^2 quality factor of the fitting was 0.95 (FIG. 16).
Compound D-IVg was titrated into 100 nM solution of RAGE tail. Fluorescence quenching was used to determine binding. R^2 quality factor of the fitting was 0.89 (FIG. 17).
Compound D-IVh was titrated into 100 nM solution of RAGE tail. Fluorescence quenching was used to determine binding. R^2 quality factor of the fitting was 0.93 (FIG. 18).

Take `Cc1c(C)n(CC(O)CN2CCOCC2)c2ccc(F)cc12` [Compound D-IIIa, 1-(5-fluoro-2,3-dimethyl-1H-indol-1-yl)-3-morpholinopropan-2-ol]: the equilibrium dissociation constant (Kd) amounted to 0.082 µM.

For the compound `Cc1c(C)n(CC(C#N)CN2CCOCC2)c2ccccc12` [Compound D-IIIb], the Kd amounted to 0.004 µM.

Compound `CC(=O)NC(CN1CCOCC1)Cn1c(C)c(C)c2ccccc21` [Compound D-IIIc, N-(1-(2,3-dimethyl-1H-indol-1-yl)-3-morphohnopropan-2-yl)acetamide] yielded a dissociation constant (Kd) of 0.009 µM.

Turning to `Cc1c(C)n(CC(O)CN2CCOCC2)c2cc(F)ccc12` [Compound D-IIId], the Kd was found to be 0.055 µM.

`Cc1c(CC(O)CN2CCOCC2)c2ccccc2n1C` [Compound D-IIIe, 1-(1,2-dimethyl-1H-indol-3-yl)-3-morpholinopropan-2-ol]: binding was characterised by a dissociation constant (Kd) of 0.02 µM.

The compound `CC(=O)NC(CN1CCOCC1)Cn1c(C)c(C)c2cc(F)ccc21` [Compound D-IIIi] returned a Kd of 0.009 µM. This Kd lies about 2.2-fold lower than the previous one.

`Cc1c(C)n(CC(CN2CCOCC2)NC(=O)C(C)C)c2ccccc12` [Compound D-IIIk]: binding was put at a Kd of 0.062 µM. Compared with the last compound, the Kd is about 6.9-fold higher.

Take `Cc1c(CC(O)CN2CCOCC2)c2ccccc2n1C(C)C` [Compound D-IIIq]: binding was characterised by a dissociation constant (Kd) of 0.011 µM. Against the preceding compound, the Kd is about 5.6-fold lower.

Regarding `Cc1c(CC(O)CN2CCOCC2)c2ccc(F)cc2n1C` [Compound D-IIIv], binding was put at a Kd of 0.014 µM.

Compound `Cc1c(C)n(CC(CC#N)CN2CCOCC2)c2ccccc12` [Compound D-IIIw] gave a Kd of 0.0043 µM. This Kd lies about 3.3-fold lower than the previous one.

Compound `OC(CN1CCCCC1)Cn1c2c(c3ccccc31)CCCC2` [Compound D-IVa] returned an equilibrium dissociation constant (Kd) of 0.072 µM.

The compound `NC(=O)C1CCCN(CC(O)Cn2c3c(c4ccccc42)CCCC3)C1` [Compound D-IVb] registered a dissociation constant Kd of 0.011 µM.

Take `O=C(O)C1CCCN(CC(O)Cn2c3c(c4ccccc42)CCCC3)C1` [Compound D-IVc]: the affinity, expressed as Kd, was 0.018 µM.

Regarding `Cc1c(C)n(CC(C#N)CN2CCCC(C(=O)O)C2)c2ccccc12` [Compound D-IVd], the Kd came out at 0.012 µM.

Turning to `Cc1c(C)n(CC(C#N)CN2CCCC(C(N)=O)C2)c2ccccc12` [Compound D-IVe], the dissociation constant (Kd) turned out to be 0.0026 µM.

For the compound `CC(=O)NC(CN1CCCC(C(=O)O)C1)Cn1c(C)c(C)c2ccccc21` [Compound D-IVf], the Kd was 0.0046 µM.

As to `CC(=O)NC(CN1CCCC(C(N)=O)C1)Cn1c(C)c(C)c2ccccc21` [Compound D-IVg], the Kd was determined as 0.012 µM. This Kd is about 2.6-fold higher than that of the compound before.

With `Cc1c(CC(O)CN2CCCC(C(=O)O)C2)c2ccccc2n1C` [Compound D-IVh], the dissociation constant Kd came to 0.0077 µM. This Kd lies about 1.6-fold lower than the previous one.
